Measured values from article PMC7565389, “Natural Potent NAAA Inhibitor Atractylodin Counteracts LPS-Induced Microglial Activation” (Frontiers in Pharmacology, 2020).
Like-named read-outs stand apart in the source and are kept apart here.

What was measured:
[1] = molecular target: T1, recombinant human NAAA protein (Homo sapiens, UniProt Q02083); assay: Fluorometric NAAA activity assay (PAMCA hydrolysis); assay type: biochemical
T1 construct: purchased R&D Systems (Shanghai, China)
T1 sequence (Q02083 29-359): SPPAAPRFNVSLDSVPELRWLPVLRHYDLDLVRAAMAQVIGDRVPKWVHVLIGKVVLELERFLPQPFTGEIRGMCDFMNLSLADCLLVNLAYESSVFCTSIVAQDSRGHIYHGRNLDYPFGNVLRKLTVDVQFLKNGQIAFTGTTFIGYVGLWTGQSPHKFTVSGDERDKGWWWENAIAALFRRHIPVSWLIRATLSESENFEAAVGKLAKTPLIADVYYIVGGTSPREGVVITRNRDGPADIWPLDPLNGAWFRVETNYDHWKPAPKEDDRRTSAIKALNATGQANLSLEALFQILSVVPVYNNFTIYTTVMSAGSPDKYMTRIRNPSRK
Procedure: (§1) Fluorometric NAAA activity measurement was used to evaluate the natural products inhibitory potency towards NAAA as previously reported with minor modifications ([West et al., 2012a]; [West et al., 2012b]). Briefly, in our initial screening, recombinant human NAAA protein was diluted in NAAA buffer (3 mM DTT, 0.1% Triton X-100, 0.05% BSA, 150 mM NaCl, pH 4.5) to 0.25 µg/ml and then 20 µL were transferred to a 96-well half-volume black plate followed by the addition of 2 µL of DMSO-diluted compounds at a final concentration of 50 µM. After shaking for 10 min on a shaking plate, 28 µL of the N-(4-methylcoumarin)-palmitamide (PAMCA) substrate in assay buffer (final concentration: 25 µM) were added, and the reaction was allowed to proceed at 37 °C for 30 min, then enzyme activity was monitored at a wavelength of 460 nm (excitation wavelength: 360 nm) on a multimode reader (Mithras LB 943, Berthold, Germany). Compounds showing > 50% inhibition were subjected to a series of two-fold dilutions for IC50 testing.
Although several compounds have been discovered as NAAA inhibitors, reports on natural derivatives are limited. Here, we constructed a small library of 465 natural compounds consisting of alkaloids, flavonoids, coumarins, terpenoids, polyacetylenes, and aliphatics for activity screening. First, we established a high-throughput screening system for NAAA inhibitors using the fluorogenic compound N-(4-methyl coumarin) palmitamide (PAMCA) as hydrolyzed substrate ([West et al., 2012b]). PAMCA was metabolized to the fluorescent 7-amino-4-methyl coumarin (AMC) and palmitic acid by NAAA at pH 4.5 ( Figure 1A ). […] To further confirm the effectiveness of the screening system, another two reported potent NAAA inhibitors, F96 and AM9053, were tested.

LPS-induced BV-2 cells [2] = assay: Pro-inflammatory cytokine release in LPS-induced BV-2 cells (ELISA); assay type: cell-based; conditions: culture supernatant
Procedure: (§2) The microglia cell line BV-2 was cultured in DMEM medium containing 10% fetal bovine serum and antibiotics (100 U/ml penicillin, 100 µg/ml streptomycin) and maintained in a humidified 5% CO2 incubator at 37°C. For the experiment, cells were seeded overnight into a 24-well plate for the cytokine assay or into 100-mm dishes for NAE extraction and quantification. The next day, the cells were incubated with fresh culture medium containing the indicated concentration of atractylodin for 0.5 h and following lipopolysaccharide (LPS) treatment (1 μg/ml). Cells incubated with vehicle only (DMSO, 0.1%) were used as control.
LPS was used to activate BV-2 cells to further assess the anti-inflammatory effects of atractylodin. […] Moreover, the ability to inhibit these inflammatory factors was stronger than the positive control drug dexamethasone (Dex) at a concentration of 10 µM ( Figure 6 ).

LPS-induced BV-2 cells [3] = assay: Cellular PEA and OEA levels in LPS-induced BV-2 cells (HPLC-MS/MS); assay type: cell-based; conditions: 10 μM, LPS 6 h, compared to LPS-treated control
Procedure: as §2
FAEs were extracted from BV-2 cells as previously reported ([Yang et al., 2015]). […] An ABI 3200 Q-Trap mass spectrometer (Applied Biosystems, Concord, Canada equipped with a 1100-LC system (Agilent, Shanghai, China) was used in this experiment. The precursor/product ion transitions in multiple reaction monitoring mode (MRM) were used for mass analysis and quantitation. The molecular ions were monitored at m/z 300.2/62.0 for PEA, m/z 326.1/62.0 for OEA, m/z 348.00/62.00 for AEA, m/z 379.10/287.10 for 2-AG, and m/z 313.1/62.0 for C17:1 FAE.
To further investigate the contribution of endogenous fatty acid ethanolamide to the anti-inflammatory effect of atractylodin, cellular PEA and OEA levels were measured by HPLC-MS/MS analysis. […]

[4] = tested on: LPS-induced BV-2 microglial cells; assay: Nitrite production in LPS-induced BV-2 cells (Griess reagent); assay type: cell-based
Procedure: as §2
The concentration of nitrite in the culture medium was determined using a Griess reagent kit that reflected the amount of NO released by cultured cells. Culture supernatants (75 μl) were reacted with an equal volume of Griess reagent kit for 30 min at room temperature, and the absorbance of the diazonium compound at a wavelength of 560 nm was measured.
The cytotoxicity of the NAAA inhibitors on BV-2 cells was assessed using CCK-8. […] NAAA is highly expressed in immune cells, including tissue macrophages, monocytes, and microglia. […] The concentrations of nitrite were monitored using the Griess reagent kit.

NAAA = conditions: read-out: IC50, NAAA inhibition (reported), cited from earlier work
[5] = substrate: CCCCCCCCCCCCCCCC(=O)Nc1ccc2c(C)cc(=O)oc2c1; assay: Fluorometric NAAA activity assay (PAMCA hydrolysis); assay type: biochemical, human; conditions: other: pH 4.5, 37.0 °C
Procedure: as §1
Although several compounds have been discovered as NAAA inhibitors, reports on natural derivatives are limited. Here, we constructed a small library of 465 natural compounds consisting of alkaloids, flavonoids, coumarins, terpenoids, polyacetylenes, and aliphatics for activity screening. […]

[6] = recombinant human NAAA, PAMCA 25 µM, pH 4.5, 37 °C 30 min, read-out: IC50, NAAA inhibition

## COc1ccc2cc1Oc1ccc(cc1)CC1c3cc(c(OC)cc3CCN1C)Oc1c(OC)c(OC)cc3c1C(C2)N(C)CC3 [D-tetrandrine]
[1]; [6]
  IC50: 52.9 ± 3.05 µM

## O=c1cc(-c2ccc(O)c(-c3c(O)cc(O)c4c(=O)cc(-c5ccc(O)cc5)oc34)c2)oc2cc(O)cc(O)c12 [amentoflavone]
[1]; [6]
  IC50: 37.8 ± 4.04 µM

## COc1cc(C[C@H](C)[C@H](C)Cc2ccc3c(c2)OCO3)ccc1O [anwuligan]
[1]; [6]
  IC50: 23.8 ± 1.06 µM

## C/C=C/C#CC#C/C=C/c1ccco1 [atractylodin]
LPS-induced BV-2 cells [2]
  inhibition of IL-1β production: in a dose-dependent manner
  inhibition of IL-6 production: in a dose-dependent manner
  inhibition of TNF-α production: in a dose-dependent manner
LPS-induced BV-2 cells [3]
  cellular OEA level: significantly increased
  cellular PEA level: significantly increased
[4]; 10 µM, 30 min pre-incubation, LPS 24 h, compared with vehicle group
  decrease of LPS-induced nitrite production: 68.21%
[4]; 1–10 µM, LPS-induced BV-2 cells
  inhibition of nitrite generation: in a dose-dependent manner
[1]
  IC50: 2.81 µM
  time course of NAAA inhibition (pre-incubation with hNAAA): rapid and unaffected by longer pre-incubation
[1]; atractylodin 3 µM
  mechanism of NAAA inhibition (Lineweaver-Burk plot): competitive
[1]; dialysis in PBS buffer
  NAAA activity after dialysis of the NAAA-inhibitor mixture: fully recovered

## CC(=O)Oc1cccc2c1C(=O)c1c(OC(C)=O)cc(C(=O)O)cc1C2=O [diacerein]
NAAA; ref Petrosino et al., 2015
  IC50: 7.2 µM

## C\C(C=C=C1C(C)(C)C[C@H](O)C[C@@]1(C)O)=C/C=C/C(C)=C/C=C/C=C(C)/C=C/C=C(\C)C(=O)C[C@@]12O[C@]1(C)C[C@@H](O)CC2(C)C [fucoxanthinol]
NAAA; ref Jin et al., 2020
  IC50: 12.8 µM

## c1cc2c(cc1[C@H]1OC[C@H]3[C@@H]1CO[C@@H]3c1ccc3c(c1)OCO3)OCO2 [sesamin]
[1]; [6]
  IC50: 30.2 ± 2.09 µM

B1: recombinant human NAAA protein (Homo sapiens) (protein)
chain: T1 sequence (Q02083 29-359)
notes: purchased R&D Systems (Shanghai, China)
[5]
  Km: 17.92 ± 3.54 µM
